Experiments:
B-ALL [1] = test: Antiproliferative activity against mouse B-ALL cells expressing wild type BCR-ABL assessed as reduction in cell viability after 72 hrs by CellTiter-Glo assay; format: functional, cell-based
BJ = test: Antiproliferative activity against human BJ assessed as cell viability after 72 hrs by CellTiter-Glo assay; format: functional, cell-based
[2] = Therapeutic index, ratio of EC50 for human BJ cells to EC50 for mouse B-ALL cells expressing wild type BCR-ABL; format: toxicity; settings: human BJ cells versus mouse B-ALL cells expressing wild type BCR-ABL; read-out: Ratio EC50
UoC-B1 = test: Antiproliferative activity against human UOCB1 assessed as reduction in cell viability after 72 hrs by CellTiter-Glo assay; format: functional, cell-based; settings: UoC-B1, 72 h
B-ALL [3] = test: Antiproliferative activity against mouse B-ALL BCR-ABL double knockout cells assessed as reduction in cell viability after 72 hrs by CellTiter-Glo assay; format: functional, cell-based
SUP-B15 = test: Antiproliferative activity against human SUP-B15 assessed as reduction in cell viability after 72 hrs by CellTiter-Glo assay; format: functional, cell-based; settings: SUP-B15, 72 h
NALM-6 = test: Antiproliferative activity against human NALM6 assessed as reduction in cell viability after 72 hrs by CellTiter-Glo assay; format: functional, cell-based; settings: NALM-6, 72 h
KOPN-8 = test: Antiproliferative activity against human KOPN8 assessed as reduction in cell viability after 72 hrs by CellTiter-Glo assay; format: functional, cell-based; settings: KOPN-8, 72 h
K562 = test: Antiproliferative activity against human K562 assessed as reduction in cell viability after 72 hrs by CellTiter-Glo assay; format: functional, cell-based; settings: K562, 72 h
MV4-11 = test: Antiproliferative activity against human MV411 assessed as reduction in cell viability after 72 hrs by CellTiter-Glo assay; format: functional, cell-based; settings: MV4-11, 72 h
[4] = Permeability of compound at pH 7.4 assessed as drug retention by PAMPA; format: ADME
[5] = Apparent permeability of compound form apical to basolateral side in human Caco2 cells; format: ADME, cell-based; settings: Caco-2
[6] = Permeability of compound at pH 7.4 by PAMPA; format: ADME; settings: read-out: Peff
[7] = Apparent permeability of compound form basolateral to apical side in human Caco2 cells; format: ADME, cell-based; settings: Caco-2
[8] = Efflux ratio of apparent permeability across basolateral to apical side over apical to basolateral side in human Caco2 cells; format: ADME, cell-based; settings: Caco-2
[9] = Half life in simulated gastric fluid; format: ADME
[10] = Half life in mouse plasma; format: ADME, cell-free
[11] = Half life in human plasma; format: ADME, cell-free

| Structure (SMILES) | EC50 (B-ALL [1]) [µM] | EC50 (BJ) [µM] | selectivity ratio [2] | EC50 (UoC-B1) [µM] | EC50 (B-ALL [3]) [µM] | EC50 (SUP-B15) [µM] | EC50 (NALM-6) [µM] | EC50 (KOPN-8) [µM] | further results |
| --- | --- | --- | --- | --- | --- | --- | --- | --- | --- |
| COc1ccc(O)c(-c2cc(-c3cc(Cl)ccc3O)[nH]n2)c1 | 4.94 | 25.1 | 5 | 13.6 | 11.2 | > 43.3 | 0.005 | 15.8 |  |
| c1ccc2[nH]c(-c3ccc(-c4nc5ccccc5[nH]4)nc3)nc2c1 | 7.89 | > 43.3 | > 5 | > 43.3 | 34.2 | 1.81 | 2.47 | 1.78 | EC50 (K562): 7.33 µM; EC50 (MV4-11): 13.7 µM |
| CCN(CC)c1ccc(-n2cnnc2-c2cccc(O)c2)cc1 | 2.03 | > 49.2 | > 24 | 1.78 | > 49.1 | > 49.1 | 1.06 | > 49.1 | EC50 (K562): 1.07 µM; EC50 (MV4-11): 0.85 µM |
| CNC(=C[N+](=O)[O-])NCCSCc1ccc(CN(C)C)o1 [RANITIDINE] |  |  |  |  |  |  |  |  | permeability [4]: 0% |
| NC(=O)N1c2ccccc2C=Cc2ccccc21 [CARBAMAZEPINE] |  |  |  |  |  |  |  |  | Papp A→B [5]: 52.4 ×10⁻⁶ cm/s; Papp [6]: 266 ×10⁻⁶ cm/s; Papp B→A [7]: 41.8 ×10⁻⁶ cm/s; efflux ratio [8]: 0.8; permeability [4]: 21.9% |
| COc1cc(-c2cc3ccccc3[nH]2)[nH]c1/C=C1\N=C(C)C=C1C | 1.24 | 8.71 | 7 | 1.49 to 1.5 | 12.5 | 25.9 | 1.07 | 14.7 |  |
| NC(=O)c1sccc1Nc1[nH]c(Nc2cccc(OC(F)(F)F)c2)nc2nncc1-2 | 3.14 | 17 | 5 | 12.9 | 14.6 | > 43.3 | 0.005 | 13.1 |  |
| O=C(c1cc(-c2csc(-c3ccc(O)cc3)n2)c[nH]1)N1CCCC1 | 3.98 | > 43.3 | > 11 | > 43.3 | > 43.3 | > 43.3 | > 43.3 | > 43.3 |  |
| COc1ccc(O)c(C(=O)NCCc2ccc(-c3cnc(C)s3)cc2)c1 | 9.49 | 8.25 |  | 24.7 | 22.7 | > 43.3 | 1.01 | 36.3 | EC50 (MV4-11): > 10 µM |
| COc1ccc(-c2[nH]nc(C)c2-c2ccc(OC)c(O)c2)c(O)c1 | 8.53 | > 43.3 | > 5 | 6.1 | 28.9 | > 43.3 | > 21.6 | 34.6 |  |
| O=C(O)CCCc1ccc(N(CCCl)CCCl)cc1 [CHLORAMBUCIL] |  |  |  |  |  |  |  |  | half-life [9]: 15.3 h |
| CC1CC(OC(=O)C(O)c2ccccc2)CC(C)(C)N1C (centres undefined) [EUCATROPINE] |  |  |  |  |  |  |  |  | half-life [10]: 2.11 h; half-life [11]: 0.42 h |
| COc1ccc(O)c(-c2cc(-c3ccc(Cl)cc3)[nH]n2)c1 | 8.04 | > 43.3 | > 5 | 10.6 | 27.8 | 5.23 | > 21.6 | 1.4 | EC50 (MV4-11): 0.65 µM |
| CS(=O)(=O)c1ccc(-c2cccc3c2OC(CNC(=O)c2ccccc2F)C3)cc1 (centres undefined) | 8.88 | > 43.3 | > 5 | > 43.3 | 36.4 | > 43.3 | 1.75 | > 43.3 |  |
| CC[C@]1(O)C[C@@H]2CN(CCc3c([nH]c4ccccc34)[C@@](C(=O)OC)(c3cc4c(cc3OC)N(C)[C@H]3[C@@](O)(C(=O)OC)[C@H](OC(C)=O)[C@]5(CC)C=CCN6CC[C@]43[C@@H]65)C2)C1 [VINBLASTINE] |  |  |  |  |  |  |  |  | Papp A→B [5]: 0.621 ×10⁻⁶ cm/s; Papp B→A [7]: 13.1 ×10⁻⁶ cm/s; efflux ratio [8]: 21.1 |
| CCCSc1ccc2nc(NC(=O)OC)[nH]c2c1 [ALBENDAZOLE] |  |  |  |  |  |  |  |  | Papp [6]: 284 ×10⁻⁶ cm/s; permeability [4]: 44.1% |

Source: ChEMBL document CHEMBL4422630, “Identification of substituted 5-membered heterocyclic compounds as potential anti-leukemic agents” (Eur J Med Chem, 2019)
